Assay results reported in patent US20090048182A1, “Cosmetic Use of at Least One Natural Ac-N-Ser-Asp-Lys-Pro-Tetrapeptide or One of Its Analogues as Agent for Slowing Down Loss of Hair and/or Stimulating Hair Growth” (CENTRE NATIONAL DE LA RECHERCHE SCIENTIFQUE (CNRS, priority 2005, published 2009).
Residues, ends and D or L forms follow the SMILES beside them.

What was measured:
collagen IV = assay: Immunolabeling of basal membrane collagen (type IV) on frozen cuts of isolated hairs; format: cell-based, human
Method: (§1) Study of the stimulating activity of tetrapeptide AcSDKP on the growth of isolated hairs maintained in a state of ex vivo survival. This study was conducted on 66 human hair explants obtained from scalp-plasty.
(§2) Hairs comprised of hair follicles were isolated by micro dissection and individually placed in wells (96-well culture plate) and maintained in survival for 15 days under conventional tissue culturing conditions (37° C., 5% CO2) in Williams medium.
(§3) Tetrapeptide AcSDKP added to the culture medium was tested at three concentrations: 10^−4 M, 10^−7 M and 10^−10 M. Minoxidil® (2,4-diamino 6-piperidinopyrimidine 3-oxide) at a concentration of 10^−5 M was used as a positive control.
(§4) Culture mediums containing the compounds to be tested were renewed every three days.
(§5) On D8 and D15 of treatment, six hairs from each batch (untreated control, Minoxidil®, +AcSDKP 10^−4 M, +AcSDKP 10^−7 M, +AcSDKP 10^−10 M) were removed and prepared for histological study.
(§6) Three explants from each batch were fixed in ordinary Bouin and the three other hairs were frozen and stored at −80° C.
(§7) In addition to measurements of the length of each hair, the general morphology of each hair was analysed and the expression of laminin 5 and collagen IV, two constituents of the basal membrane, was evaluated. Moreover, immunolabeling with anti-Ki67 antibodies (nuclear protein expressed in growing cells) was carried out of cells in mitosis in order to establish the mitotic index of follicle structures.
Immunolabeling of type IV collagen was carried out on frozen cuts of the control hairs and hairs treated with AcSDKP or Minoxidil® in order to quantify this constituent of the basal membrane which separates the dermal compartment from the epithelial compartment.

[1] = system: neo-keratinocytes / epithelial sheaths of isolated hairs; assay: General morphology of histological cuts of isolated hairs (Masson Trichromium): neo-keratinocytes, epithelial sheaths; format: cell-based, human
Method: as §1, §2, §3, §4, §5, §6, §7
Analysis of the general morphology of histological cuts stained with Masson Trichromium focusing on the area between the opening of the sebaceous glands and the hair bulb.
Hairs cultured on D0 naturally undergo changes during survival as is observed after an in vivo graft. The restructuring effect of AcSDKP was visualised through the appearance of neo-keratinocytes along the conjunctival sheath which migrate from the bulge and to a lesser extent from the bulb, two regions where stem cells are found. […] This effect leads to clear appearance of neo-keratinocytes along the length of the hair, from the epidermis to the bulb. The structure of the neo-keratinocytes formed in this way is uniform and stratified. It varies as a function of treatment time and AcSDKP concentration. The clearest activity was found on D15 of treatment with AcSDKP at 10^−10 M.

[2] = system: isolated human hair explants (hair follicles); assay: Growth (length) of isolated human hairs maintained in ex vivo survival; format: cell-based
Method: as §1, §2, §3, §4
Hairs were photographed using a microscope and a CCD camera coupled to acquisition software and archiving.
Each hair was measured on D0, D3, D6, D8, D10, D13 and D15 using a LEICA IM1000 measurement module to give measurements in μm.
Each hair was photographed and its length evaluated using software giving values in μm.

keratin 19 (CK19) = assay: Immunolabeling of keratin 19 (CK19), epithelial stem cell marker, on frozen cuts of isolated hairs; format: cell-based, human
Method: as §1, §2, §3, §4, §5, §6
Immunolabeling of keratin 19 (CK19) was carried out on frozen cuts of control hairs and hairs treated with AcSDKP or Minoxidil® in order to evaluate the proportion of undifferentiated primitive cells (or even stem cells) present in the external epithelial sheaths of the hair follicles. […]

laminin 5 = assay: Immunolabelling of laminin 5 in isolated hairs; format: cell-based, human
Method: Study of the stimulating activity of tetrapeptide AcSDKP on the growth of isolated hairs maintained in a state of ex vivo survival. This study was conducted on 66 human hair explants obtained from scalp-plasty. Hairs comprised of hair follicles were isolated by micro dissection and individually placed in wells (96-well culture plate) and maintained in survival for 15 days under conventional tissue culturing conditions (37° C., 5% CO2) in Williams medium. Tetrapeptide AcSDKP added to the culture medium was tested at three concentrations: 10^−4 M, 10^−7 M and 10^−10 M. Minoxidil® (2,4-diamino 6-piperidinopyrimidine 3-oxide) at a concentration of 10^−5 M was used as a positive control. Culture mediums containing the compounds to be tested were renewed every three days. On D8 and D15 of treatment, six hairs from each batch (untreated control, Minoxidil®, +AcSDKP 10^−4 M, +AcSDKP 10^−7 M, +AcSDKP 10^−10 M) were removed and prepared for histological study. Three explants from each batch were fixed in ordinary Bouin and the three other hairs were frozen and stored at −80° C. In addition to measurements of the length of each hair, the general morphology of each hair was analysed and the expression of laminin 5 and collagen IV, two constituents of the basal membrane, was evaluated. […]

[3] = system: cells in mitosis (Ki67) in the epithelial sheath of hair; assay: Cell proliferation: anti-Ki67 immunolabeling of cells in mitosis along the epithelial sheath of isolated hairs; format: cell-based, human
Method: as §1, §2, §3, §4, §5, §6, §7
This study was conducted on cuts of frozen hairs.

SMILES	Collagen IV expression (collagen IV; hair treated with Minoxidil)	Adherence of epithelial sheaths to collagen ([1]; D8, Minoxidil)	Neo-keratinocyte sites ([1]; D8, Minoxidil 10 μM)	Neo-keratinocyte structure compared to untreated hair ([1]; D15, Minoxidil 10^−5 M)	Increase in collagen IV levels (collagen IV; D8 and D15, AcSDKP 10^−10 M)	Collagen IV expression in the bulb and median section of hair (collagen IV; as of D8, AcSDKP at the three concentrations tested)	Hair growth (length of hair) ([2]; 10^−10 M in culture medium, D15 of treatment)	Hair growth (length of hair shafts) ([2]; higher concentrations (10^−4 M, 10^−7 M), D15)	Increase in CK19 levels (keratin 19 (CK19); D8 and D15, AcSDKP 10^−10 M)	Expression of CK19 compared to control hair and Minoxidil-treated hair (keratin 19 (CK19); hair kept in survival in presence of the tetrapeptide)	Laminin 5 increase in the median zone of hair (laminin 5; D8, AcSDKP 10^−10 M)	Expression of laminin 5 (laminin 5; D15, AcSDKP 10^−7 M)	Restructuring of the epithelial sheaths ([1]; AcSDKP in the culture medium, as of D8 of treatment)	Adherence of epithelial sheaths to collagen ([1]; D8, AcSDKP 10^−4 M)	Neo-keratinocyte sites ([1]; D8, AcSDKP 10^−4 M)	Adherence of epithelium to the underlying collagen ([1]; D8, the two active concentrations (10^−7 M and 10^−10 M))	Neo-keratinocyte structure thickness ([1]; D15, AcSDKP 10^−4 M, 10^−7 M and especially 10^−10 M)	Increase in number of cells in mitosis compared to control hair ([3]; 10^−10 M, D8 of treatment)	Average number of cells in mitosis per mm of hair ([3]; AcSDKP 10^−7 M, D8)	Number of cells in mitosis in treated hair compared to control hair ([3]; three concentrations tested (10^−4 M, 10^−7 M, 10^−10 M))
Nc1cc(N2CCCCC2)nc(N)[n+]1[O-] [Minoxidil ®, 2,4-diamino 6-piperidinopyrimidine 3-oxide, reference compound]	often less evident	more or less detached	absent	slightly more structured	–	–	–	–	–	–	–	–	–	–	–	–	–	–	–	–
CC(=O)N[C@@H](CO)C(=O)N[C@@H](CC(=O)O)C(=O)N[C@@H](CCCCN)C(=O)N1CCC[C@H]1C(=O)O [AcSDKP, CH3CO-Ser-Asp-Lys-Pro-OH] (Ac-SDKP-OH)	–	–	–	–	all the more marked	very clear increase in collagen IV	significantly stimulates hair growth	no significant difference	maximal	significantly greater	considerably more marked	higher	leads to restructuring of the epithelial sheaths	more or less detached	absent	adheres fully	increasingly thicker	+300%	34 per mm of hair	significantly increases the number of cells in mitosis
